According to ChEMBL document CHEMBL3045557, “A new benzil derivative from Derris scandens: Structure-insecticidal activity study” (2010):
Active and inactive are the calls of the source. The rule behind the calls is not given here.

What was measured:
Achaea janata [1] = assay: Insecticidal activity against Achaea janata assessed as larval duration at 2 ug/larva administered through topical application (reference value: 7.3 +/- 0.1 days); type: functional
Achaea janata [2] = assay: Insecticidal activity against Achaea janata assessed as adult emergence at 2 ug/larva administered through topical application (reference value: 98.8 +/- 0.5 %); type: functional
Achaea janata [3] = assay: Insecticidal activity against Achaea janata assessed as adult deformity at 2 ug/larva administered through topical application; type: functional
Achaea janata [4] = assay: Insecticidal activity against Achaea janata assessed as larval mortality at 2 ug/larva administered through topical application; type: functional
Achaea janata [5] = assay: Toxicity against Achaea janata after 24 hr by leaf disk method; type: functional
Achaea janata [6] = assay: Antifeedant activity against Achaea janata at 1 ug/cm2 by conventional no-choice disk method; type: functional, organism-based
Achaea janata [7] = assay: Toxicity against Achaea janata at 10 ug/cm2 after 24 hr by leaf disk method; type: functional
Achaea janata [8] = assay: Insecticidal activity against Achaea janata assessed as larval duration at 4 ug/larva administered through topical application (reference value: 7.3 +/- 0.1 days); type: functional
Achaea janata [9] = assay: Insecticidal activity against Achaea janata assessed as adult emergence at 4 ug/larva administered through topical application (reference value: 98.8 +/- 0.5 %); type: functional
Achaea janata [10] = assay: Insecticidal activity against Achaea janata assessed as pupal weight at 4 ug/larva administered through topical application (reference value: 696.4 +/- 2.6 mg); type: functional
Achaea janata [11] = assay: Antifeedant activity against Achaea janata at 2 ug/cm2 by conventional no-choice disk method; type: functional, organism-based
Achaea janata [12] = assay: Insecticidal activity against Achaea janata assessed as pupal mortality at 2 ug/larva administered through topical application; type: functional
Achaea janata [13] = assay: Insecticidal activity against Achaea janata assessed as pupal duration at 2 ug/larva administered through topical application (reference value: 10.3 +/- 0.1 days); type: functional
Achaea janata [14] = assay: Antifeedant activity against Achaea janata at 10 ug/cm2 by conventional no-choice disk method; type: functional
Achaea janata [15] = assay: Insecticidal activity against Achaea janata assessed as larval mortality at 4 ug/larva administered through topical application; type: functional
Achaea janata [16] = assay: Insecticidal activity against Achaea janata assessed as pupal weight at 2 ug/larva administered through topical application (reference value: 696.4 +/- 2.6 mg); type: functional
Achaea janata [17] = assay: Antifeedant activity against Achaea janata by conventional no-choice disk method; type: functional
Achaea janata [18] = assay: Insecticidal activity against Achaea janata assessed as pupal mortality at 4 ug/larva administered through topical application; type: functional
Achaea janata [19] = assay: Insecticidal activity against Achaea janata assessed as adult deformity at 4 ug/larva administered through topical application; type: functional
Achaea janata [20] = assay: Insecticidal activity against Achaea janata assessed as pupal duration at 4 ug/larva administered through topical application (reference value: 10.3 +/- 0.1 days); type: functional
Achaea janata [21] = assay: Insecticidal activity against Achaea janata assessed as larval mortality at 0.2 ug/larva administered through topical application; type: functional
Achaea janata [22] = assay: Antifeedant activity against Achaea janata at 1.25 ug/cm2 by conventional no-choice disk method; type: functional
Achaea janata [23] = assay: Toxicity against Achaea janata at 1.25 ug/cm2 after 24 hr by leaf disk method; type: functional

Compound	Time (Achaea janata [1])	Activity (Achaea janata [2])	Activity (Achaea janata [3])	mortality (Achaea janata [4])	LD50 (Achaea janata [5])	AFI (Achaea janata [6])	Activity (Achaea janata [7])	Time (Achaea janata [8])	Activity (Achaea janata [9])	Activity (Achaea janata [10])	AFI (Achaea janata [11])	mortality (Achaea janata [12])	Time (Achaea janata [13])	AFI (Achaea janata [14])	mortality (Achaea janata [15])	Activity (Achaea janata [16])	ED50 (Achaea janata [17])	mortality (Achaea janata [18])	Activity (Achaea janata [19])	Time (Achaea janata [20])	also measured
O=c1c(-c2ccc(O)cc2)coc2cc(O)cc(O)c12 [GENISTEIN]	7.8 days	27%	10.6%	31%	3.29 microg/cm2	inactive	100%	10.3 days	7.7%	532 mg	inactive	17.2%	13.1 days	97.7%	48.6%	518 mg	3.22 microg/cm2	22.5%	11.8%	–	–
COc1c(CC=C(C)C)c2c(c3occ(-c4ccc(O)cc4)c(=O)c13)C=CC(C)(C)O2 [SCANDINONE]	8.2 days	65.3%	3.5%	6.8%	inactive	inactive	14.6%	10.5 days	34.2%	592 mg	inactive	13.6%	11.8 days	1.3%	17%	621.8 mg	inactive	23.4%	5.4%	12.5 days	–
CC(C)=CCc1c2c(c(O)c3c(=O)cc(-c4ccc(O)cc4)oc13)C=CC(C)(C)O2 [LAXIFOLIN]	8.5 days	59.6%	0%	20.6%	inactive	inactive	0%	11.1 days	24.9%	552 mg	inactive	12%	10.7 days	2.6%	25.2%	567.2 mg	inactive	27.4%	2.3%	14.1 days	–
COc1c2c(c(CC=C(C)C)c(O)c1C(=O)C(=O)c1ccc(O)cc1)OC(C)(C)C=C2 [Derrisdione A]	9.3 days	35.4%	19.5%	0%	inactive	inactive	18.2%	10.5 days	29.8%	597.8 mg	inactive	29.8%	10.9 days	58.6%	0%	592.6 mg	7.18 microg/cm2	36.2%	21.1%	12.5 days	–
CC(C)=CCc1c2c(c(O)c3c(=O)c(-c4ccc(O)cc4)coc13)C=CC(C)(C)O2 [WARANGALONE]	9.4 days	63.6%	5.5%	0%	inactive	inactive	6.8%	9.8 days	50.3%	572.6 mg	inactive	17.8%	11.7 days	6.2%	0%	633.2 mg	inactive	27.6%	11.8%	11.9 days	–
CC(C)=CCc1cc(-c2coc3cc(O)c(CC=C(C)C)c(O)c3c2=O)ccc1O [LUPALBIGENIN]	7.7 days	62.7%	9.5%	0%	inactive	inactive	0%	9.7 days	32.8%	587 mg	inactive	26.4%	11.4 days	22.4%	18.8%	612 mg	inactive	32.2%	9.1%	12.9 days	–
COc1c(CC=C(C)C)c2c(c3oc(=O)c(-c4ccc(O)cc4)c(O)c13)C=CC(C)(C)O2 [SCANDENIN]	8.2 days	75.3%	0%	0%	5.28 microg/cm2	inactive	86.4%	10.8 days	18.6%	514.2 mg	inactive	13.5%	11.2 days	96.5%	42.6%	550.8 mg	3.85 microg/cm2	24.8%	10.9%	11.3 days	–
COc1c(CC=C(C)C)c2c(c(O)c1C(=O)C(=O)c1ccc(O)cc1)C=CC(C)(C)O2	7.8 days	34.5%	16.2%	15.1%	3.56 microg/cm2	inactive	100%	8.5 days	6.7%	515.4 mg	inactive	20%	13 days	96.8%	39.3%	524.4 mg	3.31 microg/cm2	31.6%	19%	13.5 days	–
C/C=C(\C)C(=O)O[C@H]1C[C@@H](OC(C)=O)[C@@]2(C(=O)OC)CO[C@H]3[C@@H](O)[C@@](C)([C@]45O[C@@]4(C)[C@@H]4C[C@H]5O[C@@H]5OC=C[C@@]54O)[C@H]4[C@]1(CO[C@]4(O)C(=O)OC)[C@@H]32 [AZADIRACHTIN A]	–	98.8%	0%	–	0.67 microg/cm2	–	–	–	98.8%	696.4 mg	–	0%	10.3 days	–	–	696.4 mg	0.72 microg/cm2	0%	0%	10.3 days	mortality (Achaea janata [21]): 100%; AFI (Achaea janata [22]): 100%; Activity (Achaea janata [23]): 100%
COc1ccc(-c2c(O)c3c(OC)c(CC=C(C)C)c4c(c3oc2=O)C=CC(C)(C)O4)cc1 [SCANDENIN A]	9.3 days	71.5%	0%	11.6%	inactive	inactive	0%	11.1 days	31.5%	605 mg	inactive	19.8%	10.5 days	4%	15.2%	601.2 mg	inactive	32.8%	6.6%	10.5 days	–
C[C@@H]1O[C@@H](OC[C@H]2O[C@@H](Oc3cc(O)c4c(=O)c(-c5ccc(O)cc5)coc4c3)[C@H](O)[C@@H](O)[C@@H]2O)[C@H](O)[C@H](O)[C@H]1O [SPHAEROBIOSIDE]	10.8 days	32.7%	0%	13%	3.87 microg/cm2	inactive	97.8%	11.3 days	7.5%	504.8 mg	inactive	36%	13.3 days	96.2%	31.8%	508.6 mg	3.37 microg/cm2	41.2%	9.5%	14.4 days	–
CC(C)=CCc1c2c(c3occ(-c4ccc(O)cc4)c(=O)c3c1O)C=CC(C)(C)O2 [OSAJIN]	10.4 days	18%	10%	12.2%	3.54 microg/cm2	inactive	98.2%	11.2 days	2.9%	504.8 mg	inactive	47.8%	13.8 days	100%	33.4%	584.8 mg	3.18 microg/cm2	45.6%	15.7%	15.5 days	–
